The record followed here is article PMC7473840, “Identification of a molecular locus for normalizing dysregulated GABA release from interneurons in the Fragile X brain” (Molecular Psychiatry, 2018).

Assay [1] relates to PNs, WT cerebellar slices. Nature of the assay: Spontaneous firing of PNs, cell-attached, WT. The class given is cell-based, mouse. As to conditions: 10 μM.
Assay [2] has as its system PNs, Fmr1-KO cerebellar slices. Nature of the assay: Spontaneous firing of PNs, cell-attached, Fmr1-KO. The class given is cell-based, mouse. As to conditions: 10 μM, Fmr1-KO.
For assay [3], the target named is T1, recombinant full-length FMRP (isoform 1) (Homo sapiens, UniProt Q06787).
T1 construct: containing cDNA for full-length human FMRP; His-SUMO (N, cleaved yes); made in house; host or cells: Escherichia coli BL21 (DE3) Codon Plus
Briefly: In vitro intrinsic protein fluorescence binding assay. As to conditions: 500–1000 μM peptide and 1 μM FMRP, 100 mM NaCl, 50 mM Na2PO4 pH 7.4, 2 mM DTT, 20 °C, excitation 287 nm. The method, then: Small Ubiquitin-like Modifier (SUMO) fusion construct containing cDNA for full-length human FMRP was generated by gene synthesis (GenScript USA Inc.) and subcloned into a pET SUMO vector (Invitrogen). […] The pET SUMO–FMRP construct was transformed into Escherichia coli BL21 (DE3) Codon Plus cells and grown at 37 °C in Lennox broth medium. Protein expression was induced with 0.5 mM isopropyl-β-D-thiogalactopyranoside when optical density reached ~0.6, followed by 18 h of additional growth at 16 °C. Cells were harvested by centrifugation and pellets stored at −20 °C. In order to purify SUMO–FMRP, thawed pellets were resuspended in lysis buffer [50 mM Tris, pH 8.0, 500 mM NaCl, 20 mM imidazole, 10% glycerol, 250 mM arginine, 5 mM benzamidine, and 2 mM dithiothreitol (DTT)], supplemented with DNAse 1 and cOmplete™ Protease Inhibitor Cocktail (Sigma-Aldrich). After cell lysis and centrifugation, the filtered supernatant was loaded onto a 20 ml NiNTA column equilibrated in the same lysis buffer. The column was extensively washed with 20 column volumes (CV) of the same buffer supplemented with 100 mM imidazole. Elution of SUMO-fusion FMRP was performed using 100–500 mM imidazole gradient, and protein-containing fractions were combined and a 6× His tagged Ulp protease was added. Cleavage of the His-SUMO tag was performed overnight in a cold room (7 °C) while dialyzing in 4 L of 50 mM Tris, pH 8.0, 500 mM NaCl, 50 mM imidazole, 10% glycerol, 250 mM arginine, 5 mM benzamidine, and 2 mM DTT. Complete cleavage of the SUMO tag by Ulp was confirmed by SDS-PAGE and the protein of interest was separated from the Ulp protease and SUMO tag by passing the cleavage reaction over a second NiNTA column. Flow-through and wash fractions containing protein of interest were combined and then loaded onto a Superdex 200 gel filtration column pre-equilibrated with the same lysis buffer.
The eluted purified proteins were analyzed by both SDS-PAGE and mass spectrometry, and the combined fractions were dialyzed three times in 5 L of Fluorescence Binding Buffer (100 mM NaCl, 50 mM Na2PO4 pH 7.4, 2 mM DTT). After filtering through a 0.22 μm GV Durapore Centrifugal Filter Unit (Millipore), FMRP concentration was determined by absorbance at 280 nm using a molar extinction coefficient of 48,360 M^−1 cm^−1, and the protein was used for binding studies with Kv1.2 C-terminal peptides.
All measurements were carried out in the Fluorescence Binding Buffer at 20 °C using a PTI Quanta Master 80 Spectrofluorometer (HORIBA Scientific) by monitoring intrinsic protein fluorescence with an excitation wavelength of 287 nm. Prior to performing a binding titration for any of the peptides, a full emission spectrum (300–450 nm) of the peptide:FMRP complex was compared to that of apo-FMRP. Differences in the spectrum of the complex (500–1000 μM peptide and 1 μM FMRP) and apo-FMRP at the same concentration (i.e., fluorescence quenching, enhancement or shifts of the emission maximum) indicated binding. For each of these peptides, binding measurements were performed by adding aliquots of saturated 1 µM FMRP:peptide complex (titration solution) to 400 μL of 1 μM apo-FMRP solution as described by Wells and Di Cera. Briefly, at each titration step, a volume vD was removed from the cuvette containing the apo-FMRP and replaced by an equal volume of the titration solution (1 μM FMRP: 200–500 μM peptide complex). As a result, the concentration of FMRP (1 μM) and total volume of solution in the cuvette, V = 400 μL, remained constant while the concentration of the peptide at the ith titration step, [peptide]i, was increased, and given by
[peptide]i = [peptide]0^i.D^i+[peptide]∞^i.(1 − D^i),
where, [peptide]0 was the initial peptide concentration in the cuvette, [peptide]∞ was the peptide concentration in the titration solution, and D was the dilution factor, D = (V − vD)/V. […]

In another assay the test system is BC–PN synapse, WT. Briefly: sIPSCs from PNs, paired BC–PN recording, WT synapses. The class given is cell-based, mouse. The note with it: peptide 2.5 mM infused into WT BCs, before and 20 min after; n = 5-6.
Assay [4] concerns Kv1.2–FMRP interaction, cerebellar homogenates. Nature of the assay: Co-IP of Kv1.2 with FMRP (anti-FMRP antibody), peptide blocking. The class given is binding. The note with it: WT mouse cerebellar homogenates; 250 μM peptide added prior to anti-FMRP antibody; immunoblot; at least in triplicate. How it is done:
Whole cerebellums from WT and Fmr1 KO mice were homogenized in ice-cold Pull-Down buffer (1% Lubrol, 50 mM Tris–HCl, pH 7.4, 10 nM Na-orthovanadate, 30 mM Na-pyrophosphate, 50 mM NaF, 20 μm ZnCl2, and 0.25 mM PMSF, with the addition of protease inhibitor cocktail) using a Potter-Elvehjem grinding chamber (VWR). Samples were then centrifuged at 5000g for 20 min and 500 μL of supernatants were transferred into 1.5 ml Eppendorf tubes. 1:100 dilutions of anti-FMRP (Abcam 17722), anti-Kv1.2 (K14/16; Neuromab), anti-Kv1.2 ext-c (extracellular; Alomone labs), anti-Kv1.2 N-term (NBP1-42802; Novus), or anti-GAPDH (GAPDH-71.1; 1:80,000; Sigma-Aldrich) antibodies were added to the homogenate and incubated at 4 °C under continuous agitation for 2 h. A total 30 μL of a 1:1 mixture of pre-washed protein A and protein G magnabeads (Genscript) was then added and the samples were incubated under the same conditions for another 2 h. Beads were washed 4 times with PBS-Tween (0.2% Tween w/v) and then centrifuged at 3000g for 1 min. A sample was kept to verify total protein input. Protein was disassociated from the beads with the addition of 30 μL of 2× loading buffer (4% SDS, 20% glycerol w/v, 0.1 M dithiothreitol, 100 mM Tris–HCl, pH 6.8) then submitting the samples to 3 min at 95 °C. […] Bands were quantified as previously described using the AlphaEase SA software. […]
On the technique in general: A western blot detects proteins with antibodies after separation by electrophoresis.

`NS(=O)(=O)c1cccc2c1c([N+](=O)[O-])cc1nc(O)c(O)nc12` [NBQX]: the “spontaneous firing of PNs, WT” value in assay [1] is listed as “little effect on the spontaneous firing”. Also, the “spontaneous firing of PNs, KO” value in assay [2] is “little effect on the spontaneous firing”.
Consider IKPSTLSDSRAKpSSDPpSKPSIK [scrambled], for which the “change of fluorescence emission spectrum of FMRP (binding)” value in assay [3] is listed as “no change in the fluorescence emission spectrum of FMRP”; in assay [3] (listed as doubly-phosphorylated scrambled peptide), “no binding”. In the assay with BC–PN synapse, WT, the “amplitude and frequency of sIPSCs” value was “but not the non-phosphorylated or scrambled phosphorylated peptide, significantly elevated the amplitude and frequency of sIPSCs”. In addition, in assay [4], the “inhibition of Kv1.2–FMRP binding (co-IP)” value is recorded as “Neither the non-phosphorylated peptide with the identical sequence (Kv436-457, ^436PKIPSSPDLKKSRSASTISKSD^457) nor the doubly-phosphorylated scrambled peptide (IKPSTLSDSRAKpSSDPpSKPSIK) inhibited the Kv1.2–FMRP binding activity”.
In the case of PKIPSSPDLKKSRSASTISKSD [Kv436-457], the “change of fluorescence emission spectrum of FMRP (binding)” value in assay [3] (listed as non-phosphorylated) was “no change in the fluorescence emission spectrum of FMRP”; in assay [3] (listed as non-phosphorylated Kv1.2 C-terminal peptide) it was “no binding”. In addition, the “amplitude and frequency of sIPSCs” value in the assay with BC–PN synapse, WT was “but not the non-phosphorylated or scrambled phosphorylated peptide, significantly elevated the amplitude and frequency of sIPSCs”. The “inhibition of Kv1.2–FMRP binding (co-IP)” value in assay [4] is “Neither the non-phosphorylated peptide with the identical sequence (Kv436-457, ^436PKIPSSPDLKKSRSASTISKSD^457) nor the doubly-phosphorylated scrambled peptide (IKPSTLSDSRAKpSSDPpSKPSIK) inhibited the Kv1.2–FMRP binding activity”.
